Source: patent US10172843B2, “Piperidine derivatives” (Hoffmann-La Roche Inc., priority 2014, dated 2019)
Read-outs that look alike come from different tables or passages of the source.

Biological target: human Cat S (Homo sapiens (Human), UniProt P25774)
Assay: Cathepsin enzyme inhibition assay (fluorogenic peptide substrate)
Format: biochemical
Conditions: read-out: CatS IC50
Procedure: Cathepsin Enzyme Inhibition Assay
Enzyme activity is measured by observing the increase in fluorescence intensity caused by cleavage of a peptide substrate containing a fluorophore whose emission is quenched in the intact peptide.
Assay buffer: 100 mM potassium phosphate pH 6.5, EDTA-Na 5 mM, Triton X-100 0.001%, DTT 5 mM.
Enzymes (all at 1 nM): human and mouse Cathepsin S, Cat K, Cat B, Cat L.
Substrate ([…], except for Cat K which uses Z-Leu-Arg-AMC (both from Bachem).
Excitation 360 nm, Emission 465 nm.
Enzyme is added to the substance dilutions in 96-well microtitre plates and the reaction is started with substrate. […] IC50 are calculated by standard methods.
Inhibition of human Cat S, mouse Cat S, human Cat K, mouse Cat K, human Cat B, mouse Cat B, human Cat L and mouse Cat L have been measured separately.

[1] = human Cat S, enzyme 1 nM, substrate Z-Val-Val-Arg-AMC, pH 6.5

Sequence of human Cat S (P25774 115-331): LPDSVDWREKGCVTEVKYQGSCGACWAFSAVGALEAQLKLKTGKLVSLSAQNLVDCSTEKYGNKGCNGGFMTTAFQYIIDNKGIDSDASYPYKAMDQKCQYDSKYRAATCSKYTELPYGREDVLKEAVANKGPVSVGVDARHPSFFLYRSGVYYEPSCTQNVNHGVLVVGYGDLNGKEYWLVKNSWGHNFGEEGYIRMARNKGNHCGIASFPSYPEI

| Structure (SMILES) | IC50 [1] | IC50 |
| --- | --- | --- |
| CC(=O)OCCn1c(=O)n(C2CCN(Cc3nc(-c4ccc(C(F)(F)F)cc4)[nH]c3C)CC2)c2ccc(Cl)cc21 [Example 29, Acetic acid 2-(6-chloro-3-{1-[5-methyl-2-(4-trifluoromethyl-phenyl)-1H-imidazol-4-ylmethyl]-piperidin-4-yl}-2-oxo-2,3-dihydro-benzoimidazol-1-yl)-ethyl ester] | 280 nM | – |
| Cc1cn(-c2ccc(C(F)(F)F)cc2)nc1CN1CCC(N2Cc3ccccc3NC2=O)CC1 [Example 68, 3-{1-[4-Methyl-1-(4-trifluoromethyl-phenyl)-1H-pyrazol-3-ylmethyl]-piperidin-4-yl}-3,4-dihydro-1H-quinazolin-2-one] | 650 nM | – |
| Cc1[nH]c(-c2ccc(C(F)(F)F)cc2)nc1CN1CCC(c2c[nH]c3ncccc23)CC1 [Example 38, 3-{1-[5-Methyl-2-(4-trifluoromethyl-phenyl)-1H-imidazol-4-ylmethyl]-piperidin-4-yl}-1H-pyrrolo[2,3-b]pyridine] | 470 nM | – |
| O=c1[nH]ccc2c1ncn2C1CCN(Cc2cnc(-c3ccc(C(F)(F)F)cc3)[nH]2)CC1 [Example 14, 1-[1-[[2-[4-(Trifluoromethyl)phenyl]-1H-imidazol-5-yl]methyl]-4-piperidyl]-5H-imidazo[4,5-c]pyridin-4-one] | 4320 nM | – |
| Cc1[nH]c(-c2ccc(S(=O)(=O)CC(C)C)cc2)nc1CN1CCC(n2c(=O)n(C)c3ccccc32)CC1 [Example 79, 1-Methyl-3-(1-{5-methyl-2-[4-(2-methyl-propane-1-sulfonyl)-phenyl]-1H-imidazol-4-ylmethyl}-piperidin-4-yl)-1,3-dihydro-benzoimidazol-2-one] | 2870 nM | – |
| Cc1[nH]c(-c2ccc(C(F)(F)F)cc2)nc1CN1CCC(N2C(=O)Cc3ccccc32)CC1 [Example 2, 1-{1-[5-Methyl-2-(4-trifluoromethyl-phenyl)-1H-imidazol-4-ylmethyl]-piperidin-4-yl}-1,3-dihydro-indol-2-one] | – | 780 nM |
| O=c1[nH]c(-c2ccc(Br)cc2)nn1C1CCN(Cc2cnc(-c3ccc(C(F)(F)F)cc3)[nH]2)CC1 [Example 16, 5-(4-Bromophenyl)-2-[1-[[2-[4-(trifluoromethyl)phenyl]-1H-imidazol-5-yl]methyl]-4-piperidyl]-4H-1,2,4-triazol-3-one] | 1500 nM | – |
| Cc1[nH]c(-c2ccc(C(F)(F)F)c(Cl)c2)nc1CN1CCC(N2Cc3ccc(F)cc3NC2=O)CC1 [Example 45, 3-{1-[2-(3-Chloro-4-trifluoromethyl-phenyl)-5-methyl-1H-imidazol-4-ylmethyl]-piperidin-4-yl}-7-fluoro-3,4-dihydro-1H-quinazolin-2-one] | 110 nM | – |
| COCCc1[nH]c(-c2ccc(C(F)(F)F)cc2)nc1CN1CCC(c2c[nH]c3ccncc23)CC1 [Example 61, 3-{1-[5-(2-Methoxy-ethyl)-2-(4-trifluoromethyl-phenyl)-1H-imidazol-4-ylmethyl]-piperidin-4-yl}-1H-pyrrolo[3,2-c]pyridine] | 1940 nM | – |
| Cc1[nH]c(-c2ccc(S(=O)(=O)CC(C)C)cc2)nc1CN1CCC(N2Cc3ccccc3NC2=O)CC1 [Example 78, 3-(1-{5-Methyl-2-[4-(2-methyl-propane-1-sulfonyl)-phenyl]-1H-imidazol-4-ylmethyl}-piperidin-4-yl)-3,4-dihydro-1H-quinazolin-2-one] | 1070 nM | – |
| Cn1nc(CN2CCC(N3Cc4ccccc4NC3=O)CC2)nc1-c1ccc(C(F)(F)F)cc1 [Example 66, 3-{1-[1-Methyl-5-(4-trifluoromethyl-phenyl)-1H-[1,2,4]triazol-3-ylmethyl]-piperidin-4-yl}-3,4-dihydro-1H-quinazolin-2-one] | 450 nM | – |
| CCn1c(=O)n(C2CCN(Cc3nc(-c4ccc(C(F)(F)F)cc4)[nH]c3C)CC2)c2ccc(Cl)cc21 [Example 26, 5-Chloro-3-ethyl-1-{1-[5-methyl-2-(4-trifluoromethyl-phenyl)-1H-imidazol-4-ylmethyl]-piperidin-4-yl}-1,3-dihydro-benzoimidazol-2-one] | 150 nM | – |
| Cc1nc(-c2ccc(C(F)(F)F)cc2)[nH]c1CN1CCC(n2cnc3c(=O)[nH]ccc32)CC1 [Example 13, 1-[1-[[4-Methyl-2-[4-(trifluoromethyl)phenyl]-1H-imidazol-5-yl]methyl]-4-piperidyl]-5H-imidazo[4,5-c]pyridin-4-one] | 2750 nM | – |
| COCCc1[nH]c(-c2ccc(C(F)(F)F)cc2)nc1CN1CCC(N2Cc3ccccc3NC2=O)CC1 [Example 55, 3-{1-[5-(2-Methoxy-ethyl)-2-(4-trifluoromethyl-phenyl)-1H-imidazol-4-ylmethyl]-piperidin-4-yl}-3,4-dihydro-1H-quinazolin-2-one] | 350 nM | – |
